Test in all cases: relative viability (nuclei count vs DMSO), 5 days (fraction); higher = more cells survive
Compound in the assay “Bexarotene + Lapatinib”: C=C(c1ccc(C(=O)O)cc1)c1cc2c(cc1C)C(C)(C)CCC2(C)C [Bexarotene] + CS(=O)(=O)CCNCc1ccc(-c2ccc3ncnc(Nc4ccc(OCc5cccc(F)c5)c(Cl)c4)c3c2)o1 [Lapatinib] (partner 2 µM)
The gist of the method:
(§1)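 Relative viability divides the nuclei count in treated wells by that in vehicle wells. Lung cancer cell lines were seeded in 1536-well plates, dosed by pin tool the next day, and fixed and stained after 5 days in one step with final 0.05% Triton X-100, 1% formaldehyde and 1 ug/ml Hoechst. Dosing was a single drug or a fixed anchor-drug dose plus five library-drug doses (not always all listed) in √10 steps, and values are medians of duplicate plates imaged at 4×.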

Compound in the assay “Bexarotene + Luminespib”: C=C(c1ccc(C(=O)O)cc1)c1cc2c(cc1C)C(C)(C)CCC2(C)C [Bexarotene] + CCNC(=O)c1noc(-c2cc(C(C)C)c(O)cc2O)c1-c1ccc(CN2CCOCC2)cc1 [Luminespib] (partner 0.01 µM)
The gist of the method:
as §1

Compound in the assay “Bexarotene + Decitabine”: C=C(c1ccc(C(=O)O)cc1)c1cc2c(cc1C)C(C)(C)CCC2(C)C [Bexarotene] + Nc1ncn([C@H]2C[C@H](O)[C@@H](CO)O2)c(=O)n1 [Decitabine] (partner 2 µM)
In short, it runs like this:
as §1

Compound in the assay “Bexarotene + Olaparib”: C=C(c1ccc(C(=O)O)cc1)c1cc2c(cc1C)C(C)(C)CCC2(C)C [Bexarotene] + O=C(c1cc(Cc2n[nH]c(=O)c3ccccc23)ccc1F)N1CCN(C(=O)C2CC2)CC1 [Olaparib] (partner 8 µM)
In short, it runs like this:
as §1

In the case of NCI-H2347, the relative viability in the assay with Bexarotene + Lapatinib (first compound 0.08 µM) turned out to be 1.18; in the assay with Bexarotene + Lapatinib (first compound 0.253 µM), 1.1; in the assay with Bexarotene + Lapatinib (first compound 0.8 µM) it was 0.669; in the assay with Bexarotene + Lapatinib (first compound 2.53 µM), 1.06; with Bexarotene + Lapatinib (first compound 8 µM), 0.917; with Bexarotene + Luminespib (first compound 0.08 µM) it was 0.507. Further, the relative viability amounted to 0.255 in the assay with Bexarotene + Luminespib (first compound 0.253 µM); 0.379 with Bexarotene + Luminespib (first compound 2.53 µM); 0.22 in the assay with Bexarotene + Luminespib (first compound 8 µM); 0.621 with Bexarotene + Decitabine (first compound 0.08 µM); 0.705 in the assay with Bexarotene + Decitabine (first compound 0.253 µM); 0.606 in the assay with Bexarotene + Decitabine (first compound 0.8 µM). Also, the relative viability was determined as 0.686 with Bexarotene + Decitabine (first compound 2.53 µM); 0.565 in the assay with Bexarotene + Decitabine (first compound 8 µM); 0.583 with Bexarotene + Olaparib (first compound 0.08 µM); 0.614 with Bexarotene + Olaparib (first compound 0.253 µM); 0.552 in the assay with Bexarotene + Olaparib (first compound 0.8 µM); 0.42 with Bexarotene + Olaparib (first compound 2.53 µM). Also, in the assay with Bexarotene + Olaparib (first compound 8 µM), the relative viability was determined as 0.647.
Turning to NCI-H2126, the relative viability with Bexarotene + Lapatinib (first compound 0.08 µM) worked out at 0.768; in the assay with Bexarotene + Lapatinib (first compound 0.253 µM), 0.741; with Bexarotene + Lapatinib (first compound 0.8 µM), 0.73; with Bexarotene + Lapatinib (first compound 2.53 µM), 0.81; with Bexarotene + Lapatinib (first compound 8 µM), 0.757; in the assay with Bexarotene + Luminespib (first compound 0.08 µM), 0.929. For the same cell line, the relative viability with Bexarotene + Luminespib (first compound 0.253 µM) was 0.843; with Bexarotene + Luminespib (first compound 0.8 µM), 0.924; with Bexarotene + Luminespib (first compound 2.53 µM) it was 0.916; in the assay with Bexarotene + Luminespib (first compound 8 µM) it was 0.823; in the assay with Bexarotene + Decitabine (first compound 0.08 µM), 0.631; with Bexarotene + Decitabine (first compound 0.253 µM), 0.696. Also, the relative viability with Bexarotene + Decitabine (first compound 0.8 µM) was determined as 0.575; with Bexarotene + Decitabine (first compound 2.53 µM), 0.571; with Bexarotene + Decitabine (first compound 8 µM), 0.554; in the assay with Bexarotene + Olaparib (first compound 0.08 µM), 0.927; in the assay with Bexarotene + Olaparib (first compound 0.253 µM), 0.912; with Bexarotene + Olaparib (first compound 0.8 µM), 0.855. Moreover, the relative viability with Bexarotene + Olaparib (first compound 2.53 µM) came to 0.837; in the assay with Bexarotene + Olaparib (first compound 8 µM), 0.816.
HCC-827: the relative viability with Bexarotene + Lapatinib (first compound 0.08 µM) was determined as 0.274; with Bexarotene + Lapatinib (first compound 0.253 µM), 0.159; with Bexarotene + Lapatinib (first compound 0.8 µM) it was 0.185; with Bexarotene + Lapatinib (first compound 2.53 µM), 0.196; with Bexarotene + Lapatinib (first compound 8 µM), 0.196; with Bexarotene + Luminespib (first compound 0.08 µM), 0.525. In addition, the relative viability in the assay with Bexarotene + Luminespib (first compound 0.253 µM) stood at 0.78; with Bexarotene + Luminespib (first compound 0.8 µM), 0.655; with Bexarotene + Luminespib (first compound 2.53 µM) it was 0.808; in the assay with Bexarotene + Luminespib (first compound 8 µM), 0.473; in the assay with Bexarotene + Decitabine (first compound 0.08 µM), 0.396; in the assay with Bexarotene + Decitabine (first compound 0.253 µM) it was 0.311. Besides, the relative viability was found to be 0.33 with Bexarotene + Decitabine (first compound 0.8 µM); 0.298 with Bexarotene + Decitabine (first compound 2.53 µM); 0.335 with Bexarotene + Decitabine (first compound 8 µM); 0.714 in the assay with Bexarotene + Olaparib (first compound 0.08 µM); 0.637 with Bexarotene + Olaparib (first compound 0.253 µM); 0.763 with Bexarotene + Olaparib (first compound 0.8 µM). Moreover, the relative viability with Bexarotene + Olaparib (first compound 2.53 µM) worked out at 0.666; in the assay with Bexarotene + Olaparib (first compound 8 µM) it was 0.625.
As to NCI-H3122, the relative viability with Bexarotene + Lapatinib (first compound 0.08 µM) was found to be 1.09; with Bexarotene + Lapatinib (first compound 0.253 µM) it was 1.06; with Bexarotene + Lapatinib (first compound 0.8 µM), 1.12; with Bexarotene + Lapatinib (first compound 2.53 µM), 1.08; in the assay with Bexarotene + Lapatinib (first compound 8 µM) it was 1.12; with Bexarotene + Luminespib (first compound 0.08 µM), 0.0956. The relative viability with Bexarotene + Luminespib (first compound 0.253 µM) was 0.0599; with Bexarotene + Luminespib (first compound 0.8 µM) it was 0.0864; with Bexarotene + Luminespib (first compound 2.53 µM), 0.0982; in the assay with Bexarotene + Luminespib (first compound 8 µM), 0.0732; with Bexarotene + Decitabine (first compound 0.08 µM) it was 0.521; with Bexarotene + Decitabine (first compound 0.253 µM), 0.385. Moreover, the relative viability in the assay with Bexarotene + Decitabine (first compound 0.8 µM) stood at 0.416; in the assay with Bexarotene + Decitabine (first compound 2.53 µM) it was 0.415; with Bexarotene + Decitabine (first compound 8 µM), 0.365; in the assay with Bexarotene + Olaparib (first compound 0.08 µM), 0.667; with Bexarotene + Olaparib (first compound 0.253 µM), 0.751; with Bexarotene + Olaparib (first compound 0.8 µM), 0.617. The relative viability with Bexarotene + Olaparib (first compound 2.53 µM) turned out to be 0.645; in the assay with Bexarotene + Olaparib (first compound 8 µM), 0.618.
For HOP-62, the relative viability with Bexarotene + Lapatinib (first compound 0.08 µM) was determined as 1.02; with Bexarotene + Lapatinib (first compound 0.253 µM), 1.09; in the assay with Bexarotene + Lapatinib (first compound 0.8 µM), 0.943; with Bexarotene + Lapatinib (first compound 2.53 µM), 1.14; in the assay with Bexarotene + Lapatinib (first compound 8 µM) it was 1.1; with Bexarotene + Luminespib (first compound 0.08 µM), 1.07. Moreover, the relative viability in the assay with Bexarotene + Luminespib (first compound 0.253 µM) is 1.1; with Bexarotene + Luminespib (first compound 0.8 µM), 1.01; with Bexarotene + Luminespib (first compound 2.53 µM) it was 1.09; with Bexarotene + Luminespib (first compound 8 µM), 0.978; in the assay with Bexarotene + Decitabine (first compound 0.08 µM), 0.222; with Bexarotene + Decitabine (first compound 0.253 µM), 0.183. The relative viability in the assay with Bexarotene + Decitabine (first compound 0.8 µM) stood at 0.183; with Bexarotene + Decitabine (first compound 2.53 µM) it was 0.164; in the assay with Bexarotene + Decitabine (first compound 8 µM), 0.208; with Bexarotene + Olaparib (first compound 0.08 µM), 0.452; with Bexarotene + Olaparib (first compound 0.253 µM), 0.711; with Bexarotene + Olaparib (first compound 0.8 µM), 0.56. Further, the values for the relative viability in the assay with Bexarotene + Olaparib (first compound 2.53 µM) and with Bexarotene + Olaparib (first compound 8 µM) were 0.43 and 0.371, respectively.
As for HCC-44, the relative viability with Bexarotene + Lapatinib (first compound 0.08 µM) amounted to 1.06; in the assay with Bexarotene + Lapatinib (first compound 0.253 µM), 1.06; in the assay with Bexarotene + Lapatinib (first compound 0.8 µM), 0.919; in the assay with Bexarotene + Lapatinib (first compound 2.53 µM), 0.924; with Bexarotene + Lapatinib (first compound 8 µM), 0.879; in the assay with Bexarotene + Luminespib (first compound 0.08 µM), 1.31. Moreover, the relative viability with Bexarotene + Luminespib (first compound 0.253 µM) turned out to be 1.03; with Bexarotene + Luminespib (first compound 0.8 µM) it was 1.08; with Bexarotene + Luminespib (first compound 2.53 µM), 1.02; in the assay with Bexarotene + Luminespib (first compound 8 µM), 0.977; in the assay with Bexarotene + Decitabine (first compound 0.08 µM), 1.07; with Bexarotene + Decitabine (first compound 0.253 µM) it was 0.96. Moreover, the relative viability amounted to 0.907 with Bexarotene + Decitabine (first compound 0.8 µM); 1.01 with Bexarotene + Decitabine (first compound 2.53 µM); 0.897 with Bexarotene + Decitabine (first compound 8 µM); 1.07 with Bexarotene + Olaparib (first compound 0.08 µM); 1.11 with Bexarotene + Olaparib (first compound 0.253 µM); 1.05 with Bexarotene + Olaparib (first compound 0.8 µM). The relative viability worked out at 1.03 with Bexarotene + Olaparib (first compound 2.53 µM) and 1.05 with Bexarotene + Olaparib (first compound 8 µM).

For the origin of these results see the supplement of paper PMC10307832.
